Results reported in patent US10287251B2, “Pyrazole derivative or pharmaceutically acceptable salt thereof” (KISSEI PHARMACEUTICAL CO., LTD., priority 2015, dated 2019).

Legend:
TRPM8 = biological target: T1, TRPM8 (Rattus norvegicus, UniProt Q8R455); assay: Confirmation test of inhibitory effects on icilin-induced wet-dog shakes; assay type: in vivo; conditions: female SD rats, icilin 1 mg/kg i.p. 1 hour after dosing, shakes counted for 5 minutes
T1 construct: from tissue; host or cells: whole animal, female SD rats (in vivo)
T1 sequence (Q8R455 whole entry): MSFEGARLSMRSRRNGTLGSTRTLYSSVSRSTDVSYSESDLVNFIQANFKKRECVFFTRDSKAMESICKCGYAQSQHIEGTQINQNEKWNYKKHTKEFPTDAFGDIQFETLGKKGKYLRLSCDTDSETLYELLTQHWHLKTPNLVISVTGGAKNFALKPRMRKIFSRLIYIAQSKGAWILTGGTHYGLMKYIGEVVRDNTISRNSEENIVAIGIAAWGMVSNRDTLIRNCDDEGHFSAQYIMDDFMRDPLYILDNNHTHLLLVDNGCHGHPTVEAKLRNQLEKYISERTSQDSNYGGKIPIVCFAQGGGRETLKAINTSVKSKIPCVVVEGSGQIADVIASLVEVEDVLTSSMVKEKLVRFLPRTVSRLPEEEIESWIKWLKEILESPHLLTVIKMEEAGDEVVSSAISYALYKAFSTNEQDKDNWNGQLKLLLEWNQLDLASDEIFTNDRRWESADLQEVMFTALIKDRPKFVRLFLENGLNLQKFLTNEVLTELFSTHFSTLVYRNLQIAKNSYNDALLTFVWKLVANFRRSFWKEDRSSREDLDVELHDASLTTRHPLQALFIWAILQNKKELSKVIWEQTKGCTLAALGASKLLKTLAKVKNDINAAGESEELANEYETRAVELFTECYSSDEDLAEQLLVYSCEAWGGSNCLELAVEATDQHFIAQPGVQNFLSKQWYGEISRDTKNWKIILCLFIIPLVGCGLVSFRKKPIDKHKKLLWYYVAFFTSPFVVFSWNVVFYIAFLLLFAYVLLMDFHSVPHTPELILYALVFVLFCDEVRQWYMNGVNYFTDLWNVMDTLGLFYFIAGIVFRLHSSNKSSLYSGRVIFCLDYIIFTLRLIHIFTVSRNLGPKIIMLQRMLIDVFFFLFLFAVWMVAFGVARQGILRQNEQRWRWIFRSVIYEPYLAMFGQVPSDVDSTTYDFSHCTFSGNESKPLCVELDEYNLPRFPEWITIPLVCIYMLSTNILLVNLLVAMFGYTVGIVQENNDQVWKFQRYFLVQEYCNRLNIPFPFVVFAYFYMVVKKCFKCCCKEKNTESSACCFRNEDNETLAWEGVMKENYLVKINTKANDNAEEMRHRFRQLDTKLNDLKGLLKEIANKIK
How it was run: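 Female SD rats received compounds orally at 0.3 to 10 mg/kg in 5% dimethylacetamide/0.5% methylcellulose. One hour later, icilin (1 mg/kg, i.p., in PEG 400) was given, and wet-dog shakes were counted for 5 min starting 5 min after icilin. Percent inhibition was calculated against vehicle-treated rats.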

[1] = system: overactive bladder induced by acetic acid; assay: Confirmation test of elongation action of micturition interval of overactive bladder induced by acetic acid; assay type: in vivo; conditions: Rattus norvegicus, iv; urethane-anesthetized female SD rats, 1 mg/kg/mL via femoral vein, intravesical 0.25% acetic acid; interval after/before administration x100
Excerpt: Further, TRPM8 inhibitory activity can be evaluated by the efficacy inhibiting the wet-dog shake action which is induced by the administration of Icilin, TRPM8 agonist. Furthermore, an effect on overactive bladder (OAB) can be evaluated by an elongation of micturition interval against overactive bladder induced by acetic acid in accordance with a similar method described in J. Urol., 2001, 166, 1142. Confirmation Test of Elongation Action of Micturition Interval of Overactive Bladder Induced by Acetic Acid Urethane (sigma) was dissolved into pure water by 25% w/v, and female SD rats were anesthetized with 1.25 g/kg urethane by subcutaneous administration. Cannulae were placed in femoral vein and bladder, and the bladder cannula was connected to both a syringe pump and a pressure transducer. Detrusor overactivity was induced by intravesical infusion of 0.25% acetic acid in saline at a rate of 3.6 mL/h, and intravesical pressure was monitored via pressure transducer concurrently. Test compounds were dissolved into a mixture of dimethylacetamide and saline (20:80), and were administered via, the femoral vein. Elongation of micturition interval (%) by test compound was calculated from the following formula: [an average of the three micturition interval after administration/an average of the three micturition interval before administration]×100.

In the case of O=C(N[C@@H](CCO)Cc1ccccn1)c1cccc(F)c1-c1cc(-c2ccc(F)cc2)[nH]n1 [Example 1-1, 3-Fluoro-2-[5-(4-fluorophenyl)-1H-pyrazol-3-yl]-N-[(2R)-4-hydroxy-1-(pyridin-2-yl)butan-2-yl]benzamide], the “% inhibition of Wet-Dog Shake” value (TRPM8; oral dose 1 mg/kg) was 82% and the response vs control in vivo at 1 mg/kg [1] was 169%.

In the case of NC(=O)[C@H](Cc1ccccc1)NC(=O)c1ccccc1-c1cc(-c2ccccc2)[nH]n1 [Example 1-14], the response vs control in vivo at 1 mg/kg [1] was 138%.

In the case of O=C(N[C@@H](CO)Cc1ccccn1)c1ccccc1-c1cc(-c2ccc(F)cc2)[nH]n1 [Example 1-58], the “% inhibition of Wet-Dog Shake” value (TRPM8; oral dose 3 mg/kg) was 86% and the response vs control in vivo at 1 mg/kg [1] was 159%.

For O=C(N[C@@H](CO)Cc1ccccn1)c1cccc(F)c1-c1cc(-c2ccc(F)cc2)[nH]n1 [Example 1-84], the “% inhibition of Wet-Dog Shake” value (TRPM8; oral dose 1 mg/kg) was 59% and the response vs control in vivo at 1 mg/kg [1] was 183%.

O=C(N[C@@H](CCO)Cc1ncccc1F)c1cccc(F)c1-c1cc(-c2ccc(F)cc2)[nH]n1 [Example 1-125] was tested, and the “% inhibition of Wet-Dog Shake” value (TRPM8; oral dose 1 mg/kg) was 56% and the response vs control in vivo at 1 mg/kg [1] was 223%.

For O=C(N[C@H](Cc1ccccn1)[C@H](O)CO)c1cccc(F)c1-c1cc(-c2ccc(F)cc2)[nH]n1 [Example 1-139], the response vs control in vivo at 1 mg/kg [1] was 163%.

O=C(N[C@H](Cc1ccccn1)[C@H](O)CO)c1ccccc1-c1n[nH]c(-c2ccc(F)cc2)c1F [Example 1-172] was tested, and the “% inhibition of Wet-Dog Shake” value (TRPM8; oral dose 1 mg/kg) was 100% and the response vs control in vivo at 1 mg/kg [1] was 194%.

For CO[C@H](CO)[C@@H](Cc1ncccn1)NC(=O)c1cccc(F)c1-c1cc(-c2ccc(F)cc2)[nH]n1 [Example 1-227], the “% inhibition of Wet-Dog Shake” value (TRPM8; oral dose 1 mg/kg) was 66% and the response vs control in vivo at 1 mg/kg [1] was 193%.

In the case of CO[C@H](CO)[C@@H](Cc1ncccn1)NC(=O)c1ccccc1-c1cc(-c2ccc(F)cc2)[nH]n1 [Example 1-238], the “% inhibition of Wet-Dog Shake” value (TRPM8; oral dose 1 mg/kg) was 82% and the response vs control in vivo at 1 mg/kg [1] was 136%.

With CO[C@H](CO)[C@@H](Cn1cccn1)NC(=O)c1cccc(F)c1-c1cc(-c2ccc(F)cc2)[nH]n1 [Example 27-1, 3-Fluoro-2-[5-(4-fluorophenyl)-1H-pyrazol-3-yl]-N-[(2R,3S)-4-hydroxy-3-methoxy-1-(1H-pyrazol-1-yl)butan-2-yl]benzamide] the “% inhibition of Wet-Dog Shake” value (TRPM8; oral dose 1 mg/kg) was 84% and the response vs control in vivo at 1 mg/kg [1] was 158%.

In the case of CO[C@H](CO)[C@@H](Cn1cccn1)NC(=O)c1ccccc1-c1cc(-c2ccc(F)cc2)[nH]n1 [Example 27-7], the “% inhibition of Wet-Dog Shake” value (TRPM8; oral dose 1 mg/kg) was 88% and the response vs control in vivo at 1 mg/kg [1] was 176%.

In the case of CO[C@H](CO)[C@@H](Cn1cccn1)NC(=O)c1cccc(F)c1-c1cc(-c2ccc(Cl)cc2)[nH]n1 [Example 27-14], the “% inhibition of Wet-Dog Shake” value (TRPM8; oral dose 1 mg/kg) was 51% and the response vs control in vivo at 1 mg/kg [1] was 195%.

CO[C@H](CO)[C@@H](Cn1cccn1)NC(=O)c1cccc(F)c1-c1n[nH]c(-c2ccc(F)cc2)c1F [Example 27-25] was tested, and the “% inhibition of Wet-Dog Shake” value (TRPM8; oral dose 1 mg/kg) was 90% and the response vs control in vivo at 1 mg/kg [1] was 167%.

CO[C@H](CO)[C@@H](Cc1ccccn1)NC(=O)c1cccc(F)c1-c1cc(-c2ccc(Cl)cc2)[nH]n1 [Example 43-1, 2-[5-(4-Chlorophenyl)-1H-pyrazol-3-yl]-3-fluoro-N-[(2R,3 S)-4-hydroxy-3-methoxy-1-(pyridin-2-yl)butan-2-yl]benzamide] was tested, and the “% inhibition of Wet-Dog Shake” value (TRPM8; oral dose 1 mg/kg) was 90% and the response vs control in vivo at 1 mg/kg [1] was 156%.

CO[C@H](CO)[C@@H](Cc1ccccn1)NC(=O)c1cccc(F)c1-c1cc(-c2ccc(F)cc2)[nH]n1 [Example 43-3] was tested, and the “% inhibition of Wet-Dog Shake” value (TRPM8; oral dose 0.3 mg/kg) was 58% and the response vs control in vivo at 1 mg/kg [1] was 158%.

In the case of O=C(N[C@H](Cc1ccccn1)[C@H](F)CO)c1cccc(Cl)c1-c1cc(-c2ccc(F)cc2)[nH]n1 [Example 43-27], the “% inhibition of Wet-Dog Shake” value (TRPM8; oral dose 3 mg/kg) was 80% and the response vs control in vivo at 1 mg/kg [1] was 185%.

O=C(N[C@H](Cn1nccn1)[C@H](F)CO)c1cccc(F)c1-c1cc(-c2ccc(F)cc2)[nH]n1 [Example 43-42] was tested, and the “% inhibition of Wet-Dog Shake” value (TRPM8; oral dose 1 mg/kg) was 100% and the response vs control in vivo at 1 mg/kg [1] was 158%.

For O=C(N[C@H](Cn1nccn1)[C@H](F)CO)c1cccc(F)c1-c1n[nH]c(-c2ccc(F)cc2)c1F [Example 43-43], the “% inhibition of Wet-Dog Shake” value (TRPM8; oral dose 0.3 mg/kg) was 93% and the response vs control in vivo at 1 mg/kg [1] was 172%.

With O=C(N[C@H](Cn1cccn1)C(F)(F)CO)c1cccc(F)c1-c1cc(-c2ccc(F)cc2)[nH]n1 [Example 50-1, N-[(2R)-3,3-Difluoro-4-hydroxy-1-(1H-pyrazol-1-yl)butan-2-yl]-3-fluoro-2-[5-(4-fluorophenyl)-1H-pyrazol-3-yl]benzamide] the “% inhibition of Wet-Dog Shake” value (TRPM8; oral dose 1 mg/kg) was 92% and the response vs control in vivo at 1 mg/kg [1] was 217%.

For O=C(N[C@H](Cn1cccn1)[C@H](F)CO)c1cccc(F)c1-c1cc(-c2ccc(F)cc2)[nH]n1 [Example 50-6], the “% inhibition of Wet-Dog Shake” value (TRPM8; oral dose 1 mg/kg) was 54% and the response vs control in vivo at 1 mg/kg [1] was 197%.

For O=C(N[C@H](Cc1ccccn1)[C@H](F)CO)c1cccc(F)c1-c1cc(-c2ccc(Cl)cc2)[nH]n1 [Example 50-7], the “% inhibition of Wet-Dog Shake” value (TRPM8; oral dose 3 mg/kg) was 99%.

With O=C(N[C@H](Cn1cccn1)[C@@H](O)CF)c1cccc(F)c1-c1cc(-c2ccc(F)cc2)[nH]n1 [Example 50-8] the “% inhibition of Wet-Dog Shake” value (TRPM8; oral dose 3 mg/kg) was 82%.

With O=C(N[C@H](Cc1ncccn1)[C@H](F)CO)c1cccc(F)c1-c1n[nH]c(-c2ccc(F)cc2)c1F [Example 50-10] the “% inhibition of Wet-Dog Shake” value (TRPM8; oral dose 1 mg/kg) was 56%.

For O=C(N[C@H](Cn1cccn1)[C@@H](F)CO)c1cccc(F)c1-c1cc(-c2ccc(F)cc2)[nH]n1 [Example 50-11], the “% inhibition of Wet-Dog Shake” value (TRPM8; oral dose 3 mg/kg) was 100%.

For O=C(N[C@H](Cn1nccn1)C(F)(F)CO)c1cccc(F)c1-c1cc(-c2ccc(F)cc2)[nH]n1 [Example 50-12, N-[(2R)-3,3-Difluoro-4-hydroxy-1-(2H-1,2,3-triazol-2-yl)butan-2-yl]-3-fluoro-2-[5-(4-fluorophenyl)-1H-pyrazol-3-yl]benzamide], the “% inhibition of Wet-Dog Shake” value (TRPM8; oral dose 0.3 mg/kg) was 99% and the response vs control in vivo at 1 mg/kg [1] was 191%.

With O=C(N[C@@H](CCO)C(O)c1ccccn1)c1cccc(F)c1-c1cc(-c2ccc(F)cc2)[nH]n1 (stereo partly drawn) [Example 54-3] the “% inhibition of Wet-Dog Shake” value (TRPM8; oral dose 3 mg/kg) was 62%.

For C[C@H](O)C[C@H](NC(=O)c1cccc(F)c1-c1cc(-c2ccc(F)cc2)[nH]n1)C(O)c1ccccn1 (stereo partly drawn) [Example 54-4], the “% inhibition of Wet-Dog Shake” value (TRPM8; oral dose 3 mg/kg) was 50%.

O=C(N[C@H](Cc1ccccn1)[C@@H](O)CO)c1cccc(F)c1-c1cc(-c2ccc(F)cc2)[nH]n1 [Example 54-6] was tested, and the “% inhibition of Wet-Dog Shake” value (TRPM8; oral dose 3 mg/kg) was 47%.

For O=C(N[C@H](Cc1ccccn1)C[C@H](O)CO)c1cccc(F)c1-c1cc(-c2ccc(Cl)cc2)[nH]n1 [Example 54-7], the “% inhibition of Wet-Dog Shake” value (TRPM8; oral dose 3 mg/kg) was 41%.

With O=C(N[C@H](Cc1ccccn1)[C@@H](O)CO)c1cccc(F)c1-c1n[nH]c(-c2ccc(F)cc2)c1F [Example 54-9] the “% inhibition of Wet-Dog Shake” value (TRPM8; oral dose 3 mg/kg) was 40%.

In the case of CC(c1ccccn1)[C@@H](NC(=O)c1cccc(F)c1-c1cc(-c2ccc(F)cc2)[nH]n1)[C@H](O)CO (stereo partly drawn) [Example 54-14], the “% inhibition of Wet-Dog Shake” value (TRPM8; oral dose 3 mg/kg) was 77%.

For CC(c1ccccn1)[C@@H](NC(=O)c1cccc(F)c1-c1cc(-c2ccc(Cl)cc2)[nH]n1)[C@H](O)CO (stereo partly drawn) [Example 54-16], the “% inhibition of Wet-Dog Shake” value (TRPM8; oral dose 3 mg/kg) was 86% and the response vs control in vivo at 1 mg/kg [1] was 132%.

With CC(c1ccccn1)[C@@H](NC(=O)c1cccc(F)c1-c1n[nH]c(-c2ccc(F)cc2)c1F)[C@H](O)CO (stereo partly drawn) [Example 54-17] the “% inhibition of Wet-Dog Shake” value (TRPM8; oral dose 3 mg/kg) was 42%.

For COC(c1ccccn1)[C@@H](NC(=O)c1cccc(F)c1-c1cc(-c2ccc(F)cc2)[nH]n1)[C@H](O)CO (stereo partly drawn) [Example 54-19], the “% inhibition of Wet-Dog Shake” value (TRPM8; oral dose 3 mg/kg) was 68%.

O=C(N[C@H](Cn1nccn1)C(F)(F)CO)c1cccc(F)c1-c1n[nH]c(-c2ccc(F)cc2)c1F [Example 56-1, N-[(2R)-3,3-Difluoro-4-hydroxy-1-(2H-1,2,3-triazol-2-yl)butan-2-yl]-3-fluoro-2-[4-fluoro-5-(4-fluorophenyl)-1H-pyrazol-3-yl]benzamide] was tested, and the “% inhibition of Wet-Dog Shake” value (TRPM8; oral dose 0.3 mg/kg) was 91% and the response vs control in vivo at 1 mg/kg [1] was 150%.

In the case of COC[C@@H](O)[C@@H](Cn1nccn1)NC(=O)c1cccc(F)c1-c1cc(-c2ccc(F)cc2)[nH]n1 [Example 60-1], the “% inhibition of Wet-Dog Shake” value (TRPM8; oral dose 1 mg/kg) was 92%.
